Article PMC7435865, “Antinociceptive and Cytotoxic Activity of Opioid Peptides with Hydrazone and Hydrazide Moieties at the C-Terminus” (Molecules, 2020)
“And” between values parts separate entries of the source, which are not always exact repeats. Equal values may be shown once.

Experiments:
[1] = molecular target: T1, µ opioid receptor (MOR) (Rattus norvegicus, UniProt P33535); set-up: method as in PMID 28105278; conditions: rat brain homogenate; previously reported ref 33; read-out: MOR IC50 ± SEM; cited from earlier work
T1 construct: Membrane fractions of rat brain homogenate were incubated at 25 °C for 60 min in the presence of radioligands; from tissue; host or cells: rat brain (membrane fractions of homogenate)

[2] = tested on: male Wistar rats; set-up: method as in PMID 28105278; conditions: already published ref 33, cited from earlier work
[3] = tested on: MeW155 human melanoma cells; experiment: melanoma cell number in culture after incubation with compound; assay type: cell-based; conditions: 50 µM, 96 h incubation
Method: The determination was performed by counting the cells of the MeW155 cell line after incubating them with 50 µM of the tested compounds.
The cells were plated in 24-well plates (5000 cells per well) and incubated for 24 h in Eagle’s medium containing 10% fetal bovine serum and 1% solution of penicillin and streptomycin. […] Control cells were treated with 1% DMSO only. After 96 h of incubation, the cell suspension was first lysed in lysis buffer (ReagentA, ChemoMetec A/S) and then stabilized in stabilization buffer (ReagentB, ChemoMetec A/S). The number of […] was quantified in a propidium iodide cassette with the use of a NucleoCounter® NC-100™ (ChemoMetec A/S) cell counter. The tests were performed in triplicate. The results were normalized so that the values obtained for the control were 100%.

T1 sequence (P33535 whole entry): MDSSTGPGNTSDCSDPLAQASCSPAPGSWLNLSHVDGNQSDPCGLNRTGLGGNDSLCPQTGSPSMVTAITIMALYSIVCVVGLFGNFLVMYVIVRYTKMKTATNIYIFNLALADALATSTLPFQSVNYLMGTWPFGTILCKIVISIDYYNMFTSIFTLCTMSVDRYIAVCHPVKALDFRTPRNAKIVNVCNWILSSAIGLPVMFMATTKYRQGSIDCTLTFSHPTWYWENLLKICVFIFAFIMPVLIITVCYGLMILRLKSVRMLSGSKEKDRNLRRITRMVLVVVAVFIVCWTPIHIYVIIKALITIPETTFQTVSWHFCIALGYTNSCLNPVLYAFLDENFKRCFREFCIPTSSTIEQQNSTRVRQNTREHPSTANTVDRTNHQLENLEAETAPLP

## H-Tyr-D-Ala-Gly-Phe-NH-N=CH-3,5-(CF3)2Ph [1a]
[1]
  IC50: 12.7 ± 0.75 nM
[2]; 0.5 nmol/rat i.t., 15 min after injection
  antinociceptive effect, % of maximal possible effect: ~ 80 % MPE and 80 ± 9 % MPE
[2]; 0.5 nmol/rat i.t.
  area under the time course curve (AUC) of analgesic effect: 4483 ± 592 units
[2]; tail flick, i.t.
  ED50 ± SEM: 0.18 ± 0.05 nmol/rat
[3]
  effect on number of melanoma cells (in words): significantly decrease the number of melanoma cells
  number of MeW155 cells, % of the control value: 39 ± 4 % of the control
